Measurements as given in US20140105957A1, “BIS-(ALPHA-AMINO-DIOL-DIESTER) CONTAINING POLYESTERAMIDE FOR OPHTAMOLOGY” (DSM IP ASSETS B.V., priority 2011, published 2014).

Experiment: Stability of Latanoprost in PEA III formulations and compatibility with film casting, evaluated by 1H NMR
Type: physicochemical
Description: For film casting, solutions were prepared in a suitable solvent resulting in solutions with viscosities low enough for solvent casting. Exact amounts of PEA-III ac Bz and API (Active Pharmaceutical Ingredient) were weighed and dissolved with a suitable solvent. The API payload is determined over the polymer weight. API payload of 10% was used. The API/polymer/solvent formulations were poured into petri dishes (4 cm diameter) and covered to reduce evaporation rates of the solvent and prevent formation of air bubbles. The solvent was evaporated for 2 days at TT in a fumehood followed by 2 days @ 750 mBar, 1 day @ 500 mBar and 2 days at full vacuum. From the resulting films, discs were cut with diameter of 10 mm and approximate thicknesses of 500 μm.
A sample was prepared by dissolving ˜10 mg of material in 1 ml of deuterated THF in a 10 ml glass vial. The sample was allowed sufficient time for complete dissolution. ^1H NMR spectra was recorded on a 300 MHz Bruker Avance 300, ARX 400 NMR instrument.
Stability of Latanoprost in formulations and compatibility with film casting procedure was evaluated by ^1H NMR.

Stability of Latanoprost (degradation of API) by 1H NMR (PEA III formulations with Latanoprost stored @ 4° C. for 3 months): did not indicate any degradation | Stability of Latanoprost (degradation of API) by 1H NMR (initial PEA III formulations with Latanoprost, after film casting): did not indicate any degradation
Compound: CC(C)OC(=O)CCC/C=C\C[C@@H]1[C@@H](CC[C@@H](O)CCc2ccccc2)[C@H](O)C[C@@H]1O [Latanoprost]
